Assay results from article PMC11249646, “Small-Molecule Disruptors of the Interaction between Calcium- and Integrin-Binding Protein 1 and Integrin αIIbβ3 as Novel Antiplatelet Agents” (ACS Pharmacology & Translational Science, 2024).
≈ marks a conversion by molar mass, not a printed value. Like-named read-outs stand apart in the source and are kept apart here. Values belong to the compound of their own block, whether it stands above or below them.

Columns and labels:
[1] = target: T1, CIB1 and αIIb interaction (GST-CIB1 : F-αIIb peptide) (Homo sapiens, UniProt Q99828); assay: FP assay, 384-well format (screen); type: binding; parameters: 384-well SCREEN Efficacy (%): concentration or dose not given beside the values
T1 construct: made in house; host or cells: BL-21 plus RIL cells (E. coli)
T1 sequence (Q99828 1-191): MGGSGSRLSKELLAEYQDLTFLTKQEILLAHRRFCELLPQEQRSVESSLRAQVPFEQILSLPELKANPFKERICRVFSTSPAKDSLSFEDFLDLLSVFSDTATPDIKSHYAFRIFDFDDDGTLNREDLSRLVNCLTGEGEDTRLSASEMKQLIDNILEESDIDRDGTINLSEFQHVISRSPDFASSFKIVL

[2] = target: T2, CIB1 and αIIb interaction (CIB1-GST : F-αIIb peptide) (Homo sapiens, UniProt Q99828); assay: FP assay, 1536-well qHTS format (primary and confirmatory screen); type: binding
T2 construct: made in house; host or cells: BL-21 plus RIL cells (E. coli)
T2 sequence (Q99828 1-191): T1 sequence (Q99828 1-191)

[3] = target: T3, GST-CIB1 : F-scrambled peptide (Homo sapiens, UniProt Q99828); assay: FP scrambled-peptide counter screen, 1536-well format; type: binding
T3 construct: made in house; host or cells: BL-21 plus RIL cells (E. coli)
T3 sequence (Q99828 1-191): T1 sequence (Q99828 1-191)

washed human platelets = assay: Human platelet aggregation assay (thrombin-induced); type: cell-based; settings: for inhibition at 10 µM: Homo sapiens, Platelet, single concentration of 10 μM (n = 3), thrombin; for Thrombin Assay 10 µM (%): platelet aggregation inhibition at 10 µM
From the text: A classical challenge in target-based drug discovery is moving from biochemical to cellular assay and the essential step of determining if the compounds of interest can perform in a cellular context. After characterization of the compounds in a series of biochemical assay formats, our next step was to assess their activity in a cellular environment. Our previous studies have shown that the interaction of the cytoplasmic domain of integrin αIIbβ3, a key regulator of platelet aggregation, with CIB1, is involved in downstream signaling in platelet activation and aggregation. We sought to determine whether our candidate compounds were inhibiting this interaction by evaluating them for platelet function in a human platelet aggregation assay. We prepared platelet-rich plasma (PRP) and washed the platelets as previously described[44] and then performed a platelet aggregation assay using the washed platelet suspensions (2 × 10^8/platelets/mL) followed by the recording of aggregation traces (see Materials and Methods Section). To induce platelet aggregation, 0.03 U/mL of thrombin, a physiological agonist of platelet activation, was used.
Figure 6 Effect of compounds on human platelet activation. Representative platelet aggregation tracings of washed human platelet suspensions pretreated for 30 min at 37 °C with vehicle (DMSO) or compounds at indicated concentrations followed by activation with thrombin (0.03–0.1 U/mL). Panel (A): NCGC00071855. Panel (B–D): NCGC00351170. Panel (E): CD62P exposure was in the presence of NCGC00351170. Data represents mean ± SEM, n = 4 individual experiments; ns = non significant *P < 0.05, ***P < 0.001, ****P < 0.0001.
Whole blood was drawn by venipuncture from healthy adult volunteers (of both gender and race) with informed consent. Approval was obtained from the institutional review boards of Thomas Jefferson University, according to the Declaration of Helsinki. Blood was collected in acidified citrate dextrose as an anticoagulant. Platelet-rich plasma (PRP) and washed platelets were prepared, as previously described.[44] Platelet aggregation was performed using washed platelet suspensions containing 2 × 10^8 platelets/mL using a Chrono-Log Lumi-Aggregometer (Chrono-Log), as described previously.[11] Aggregation traces were recorded by using Aggrolink software (Chrono-Log). Thrombin-induced P-selectin (CD62P) exposure was performed using Accuri C6 flowcytometer (BD Bioscience) as described previously.[11]
Figure S9: Effect of compounds on human platelet activation. Representative platelet aggregation
tracings of washed human platelet suspensions treated with vehicle (DMSO) or indicated
compounds at 10 μM for 30 minutes at 37 °C followed by activation with thrombin (0.03U/mL).

[4] = In vitro ADME: solubility; type: physicochemical
[5] = In vitro ADME: PAMPA permeability
[6] = target: T3, GST-CIB1 : F-scrambled peptide; assay: FP scrambled-peptide counter screen, 384-well format; type: binding; settings: for IC50: read-out: 384-well COUNTERSCREEN IC50
[7] = target: T4, GST-CIB1:F-αIIb interaction (Homo sapiens, UniProt Q99828); assay: Gel-based (in-gel) binding assay
T4 construct: made in house; host or cells: BL-21 plus RIL cells (E. coli)
T4 sequence (Q99828 1-191): T1 sequence (Q99828 1-191)

[8] = target: T5, GST-CIB1 : F-αIIb peptide (Homo sapiens, UniProt Q99828); assay: FP assay in the presence of glutathione (GSH), thiol reactivity; type: binding; settings: for GSH/CIB1 IC50 ratio: ratio of GSH (+) IC50 to GSH (-) IC50; for GSH Assay Result: thiol reactivity call: No change / Active
T5 construct: made in house; host or cells: BL-21 plus RIL cells (E. coli)
T5 sequence (Q99828 1-191): T1 sequence (Q99828 1-191)

[9] = 384-well FP assay, Table 1, read-out: FP assay IC50
[10] = confirmatory screen, qHTS curve class, negative sign = inhibitory curve
[11] = qHTS FP screen hits, Table S2, negative = inhibition
[12] = qHTS FP screen hits, Table S2, one class per curve where COUNT > 1, negative sign = inhibitory curve
[13] = qHTS FP screen hits, Table S2, read-out: IC50
[14] = F-αIIb peptide, read-out: 384-well SCREEN IC50
[15] = F-scrambled peptide, *: Curve in opposite direction
[16] = confirmatory screen, read-out: CONFIRMATORY SCREEN IC50
[17] = scrambled-peptide counterscreen, qHTS curve class
[18] = scrambled-peptide counterscreen, read-out: COUNTERSCREEN IC50
[19] = 1 μM GST-CIB1, 400 nM F-αIIb, 60 μM, 1:2, 4-points
[20] = FP assay in the presence of glutathione (GSH +), read-out: GSH (+) Assay IC50
[21] = FP assay without glutathione (GSH -), read-out: GSH (-) Assay IC50

Compound: Cc1ccc(C(=O)c2no[n+]([O-])c2C(=O)c2ccc(C)cc2)cc1.O=C(O)C(F)(F)F [NCGC00351163-01]
IC50 [1, 9]: 6.68 µM | Efficacy (%) (confirmatory screen) ([2]; confirmatory screen): -51% | Confirm? (confirmatory screen) ([2]; confirmatory screen, YES/NO): YES | Curve Class (confirmatory screen) [2, 10]: -1.4 | IC50 ([2]; confirmatory screen, read-out: IC50 [μM] (confirmatory screen)): 5.6 µM | Efficacy (%) [2, 11]: -47% | Curve Class [2, 12]: -1.2 | IC50 [2, 13]: 11.2 µM | Efficacy (%) (counterscreen) ([3]; counterscreen): -36% | Curve Class (counterscreen) ([3]; counterscreen, qHTS curve class, negative sign = inhibitory curve): -1.2 | IC50 ([3]; counterscreen, read-out: IC50 [μM] (counterscreen)): 4 µM | inhibition at 10 µM (washed human platelets): 96% | Thrombin Assay 10 µM (%) (washed human platelets): 96% | solubility ([4]; read-out: Solubility): 12 µg/mL

IC50 [1, 9]: 7.26 µM | solubility ([4]; read-out: Solubility): > 64 µg/mL | Papp [5]: 11 ×10⁻⁶ cm/s
Compound: O=C(c1ccc(C(F)(F)F)cc1)c1no[n+]([O-])c1C(=O)c1ccc(C(F)(F)F)cc1 [NCGC00351164-01]
inhibition at 10 µM (washed human platelets): 98% | Thrombin Assay 10 µM (%) (washed human platelets): 98%

solubility [4]: > 43 µg/mL | PAMPA [5]: < 1 10-6 cm/s
Compound: O=C(c1ccccc1)c1no[n+]([O-])c1C(=O)c1ccccc1 [NCGC00351168-01]

solubility ([4]; read-out: Solubility): 23 µg/mL (≈ 102 µM) | Papp [5]: 130 ×10⁻⁶ cm/s
Compound: O=C(c1cccs1)c1no[n+]([O-])c1CO [NCGC00354607-01]
inhibition at 10 µM (washed human platelets): 14% | Thrombin Assay 10 µM (%) (washed human platelets): 14%

Compound: COc1cccc(-n2c(SCc3cc(=O)oc4cc(O)c(O)cc34)nc3ccccc3c2=O)c1.O=C(O)C(F)(F)F [NCGC00371345-01]
384-well SCREEN Efficacy (%) ([1]; F-αIIb peptide): 73% | 384-well SCREEN Confirm? ([1]; F-αIIb peptide, YES/NO): YES | IC50 [1, 14]: 11.2 µM | Confirm and Selective? ([1]; selective toward αIIb: negative curve class and/or IC50 ratio of >3-fold and/or >2-fold efficacy vs scrambled peptide): Inconclusive | 384-well COUNTERSCREEN Efficacy (%) ([6]; F-scrambled peptide): 38% | 384-well COUNTERSCREEN Confirm? [6, 15]: Inconclusive | IC50 ([6]; F-scrambled peptide): 7.1 µM | CONFIRMATORY SCREEN Efficacy (%) [2]: -90% | CONFIRMATORY SCREEN Curve Class [2, 10]: -1.1 | IC50 [2, 16]: 14.1 µM | Efficacy (%) ([2]; qHTS primary screen hits, Table S2, negative = inhibition): -34% | Curve Class ([2]; qHTS primary screen hits, Table S2, negative sign = inhibitory curve, several classes where COUNT > 1): -1.4 | IC50 ([2]; qHTS primary screen hits, Table S2, read-out: IC50): 4.5 µM | COUNTERSCREEN Efficacy (%) [3]: -35% | COUNTERSCREEN Curve Class [3, 17]: -2.4 | IC50 [3, 18]: 8.9 µM | Active in Gel Assay? [7, 19]: YES | IC50 [8, 20]: 15.9 µM | IC50 [8, 21]: 20 µM | GSH/CIB1 IC50 ratio [8]: 0.8 | GSH Assay Result [8]: No change

Compound: CC(C)=CCC[C@]1(C)C=Cc2c(O)c3c(c(CC=C(C)C)c2O1)O[C@]12C(=C[C@@H]4CC1C(C)(C)O[C@@]2(C/C=C(/C)C(=O)O)C4=O)C3=O [NCGC00485239-01]
384-well SCREEN Efficacy (%) ([1]; F-αIIb peptide): 60% | 384-well SCREEN Confirm? ([1]; F-αIIb peptide, YES/NO): YES | IC50 [1, 14]: 3.6 µM | 384-well COUNTERSCREEN Efficacy (%) ([6]; F-scrambled peptide): 40% | 384-well COUNTERSCREEN Confirm? [6, 15]: YES | IC50 ([6]; F-scrambled peptide): > 120 µM | CONFIRMATORY SCREEN Confirm? ([2]; confirmatory screen, YES/NO call): YES | CONFIRMATORY SCREEN Curve Class [2, 10]: -1.2 | CONFIRMATORY SCREEN Efficacy (%) ([2]; confirmatory screen, negative = inhibition): -54% | IC50 [2, 16]: 8.9 µM | Efficacy (%) [2, 11]: -34% | Curve Class [2, 12]: -1.2 | IC50 [2, 13]: 11.2 µM | COUNTERSCREEN Efficacy (%) ([3]; scrambled-peptide counterscreen): 32% | COUNTERSCREEN Confirm? ([3]; scrambled-peptide counterscreen, YES/NO call): YES | COUNTERSCREEN Curve Class [3, 17]: 1.4 | IC50 [3, 18]: 12.6 µM | Active in Gel Assay? [7, 19]: YES | Inhibited concentration in gel (µM) ([7]; 1 μM GST-CIB1, 400 nM F-αIIb, concentrations tested 60, 30, 15, 7.5): 60,30 µM | IC50 [8, 20]: 2.4 µM | IC50 [8, 21]: 2 µM | GSH/CIB1 IC50 ratio [8]: 1.2 | GSH Assay Result [8]: No change

Compound: thimerosal [NCGC00178879-04, reference compound]
384-well SCREEN Confirm? [1]: YES | 384-well SCREEN Efficacy (%) [1]: 77% | IC50 ([1]; read-out: 384-well SCREEN IC50): 2.8 µM | 384-well COUNTERSCREEN Confirm? [6]: YES | 384-well COUNTERSCREEN Efficacy (%) [6]: 45% | IC50 [6]: 7.1 µM | CONFIRMATORY SCREEN Confirm? [2]: YES | CONFIRMATORY SCREEN Curve Class [2]: -1.2 | CONFIRMATORY SCREEN Efficacy (%) [2]: -53% | Curve Class [2]: -1.2 | Efficacy (%) [2]: -74% | IC50 ([2]; read-out: CONFIRMATORY SCREEN IC50): 17.8 µM | IC50 ([2]; read-out: IC50): 22.4 µM | COUNTERSCREEN Confirm? [3]: YES | COUNTERSCREEN Curve Class [3]: 3 | COUNTERSCREEN Efficacy (%) [3]: 150% | Active in Gel Assay? [7]: YES | IC50 ([8]; read-out: GSH (+) Assay IC50): 35.6 µM | IC50 ([8]; read-out: GSH (-) Assay IC50): 0.316 µM
